How the values were obtained:
[1] = tested on: barnyardgrass; test: Test A pre-/postemergence greenhouse test; type: in vivo, Echinochloa crus-galli; conditions: for Plant response rating, Barnyardgrass: 0 to 100 scale where 0 is no effect and 100 is complete control; for Barnyardgrass plant response rating: 0 to 100 scale
In short: (§1)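 Herbicidal effect is a visual injury score given about ten days post-treatment by comparison with untreated controls. Preemergence plots received a directed spray onto sown loam–sand soil; postemergence plants, at the one- to two-leaf stage and 2–10 cm tall, were sprayed at the same time.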

[2] = tested on: crabgrass; test: Test A pre-/postemergence greenhouse test; type: in vivo, Digitaria sanguinalis; conditions: for Plant response rating, Crabgrass, Large: 0 to 100 scale where 0 is no effect and 100 is complete control; for Crabgrass, Large plant response rating: 0 to 100 scale
In short: as §1

[3] = tested on: wheat; test: Test A pre-/postemergence greenhouse test; type: in vivo, Triticum aestivum; conditions: for Plant response rating, Wheat: 0 to 100 scale where 0 is no effect and 100 is complete control; for Wheat plant response rating: 0 to 100 scale
In short: as §1

[4] = tested on: corn; test: Test A pre-/postemergence greenhouse test; type: in vivo, Zea mays; conditions: for Plant response rating, Corn: 0 to 100 scale where 0 is no effect and 100 is complete control; for Corn plant response rating: 0 to 100 scale
In short: as §1

[5] = tested on: Italian ryegrass; test: Test C pre-/postemergence test; type: in vivo, Lolium multiflorum; conditions: for Plant response rating, Ryegrass, Italian: 31 g ai/ha, scale 0 to 100 (0 no effect, 100 complete control)
In short: (§2)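 Compounds in a non-phytotoxic solvent with surfactant applied preemergence to seeded pots and, at the same time, postemergence to plants 2–18 cm tall (1- to 4-leaf stage). Paddy tests: pots flooded to 3 cm, compound applied into the water, depth held throughout.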

[6] = tested on: Surinam grass; test: Test C pre-/postemergence test; type: in vivo, Brachiaria decumbens; conditions: for Plant response rating, Surinam Grass: 31 g ai/ha, scale 0 to 100 (0 no effect, 100 complete control)
In short: as §2

[7] = tested on: corn; test: Test C pre-/postemergence test; type: in vivo, Zea mays; conditions: for Plant response rating, Corn: 31 g ai/ha, scale 0 to 100 (0 no effect, 100 complete control)
In short: as §2

[8] = tested on: crabgrass; test: Test C pre-/postemergence test; type: in vivo, Digitaria sanguinalis; conditions: for Plant response rating, Crabgrass, Large: 31 g ai/ha, scale 0 to 100 (0 no effect, 100 complete control)
In short: as §2

[9] = tested on: giant foxtail; test: Test C pre-/postemergence test; type: in vivo, Setaria faberii; conditions: for Plant response rating, Foxtail, Giant: 31 g ai/ha, scale 0 to 100 (0 no effect, 100 complete control)
In short: as §2

[10] = tested on: Goosegrass; test: Test C pre-/postemergence test; type: in vivo, Eleusin indica; conditions: for Plant response rating, Goosegrass: 31 g ai/ha, scale 0 to 100 (0 no effect, 100 complete control)
In short: as §2

[11] = tested on: johnsongrass; test: Test C pre-/postemergence test; type: in vivo, Sorghum halepense; conditions: for Plant response rating, Johnsongrass: 31 g ai/ha, scale 0 to 100 (0 no effect, 100 complete control)
In short: as §2

[12] = tested on: morningglory; test: Test C pre-/postemergence test; type: in vivo, Ipomoea coccinea; conditions: for Plant response rating, Morningglory: 31 g ai/ha, scale 0 to 100 (0 no effect, 100 complete control)
In short: as §2

[13] = tested on: eastern black nightshade; test: Test C pre-/postemergence test; type: in vivo, Solanum ptycanthum
In short: as §2

[14] = tested on: pigweed; test: Test C pre-/postemergence test; type: in vivo, Amaranthus retroflexus; conditions: for Plant response rating, Pigweed: 31 g ai/ha, scale 0 to 100 (0 no effect, 100 complete control)
In short: as §2

[15] = tested on: common (oilseed) sunflower; test: Test C pre-/postemergence test; type: in vivo, Helianthus annuus; conditions: for Plant response rating, Sunflower: 31 g ai/ha, scale 0 to 100 (0 no effect, 100 complete control)
In short: as §2

[16] = tested on: velvetleaf; test: Test C pre-/postemergence test; type: in vivo, Abutilon theophrasti; conditions: for Plant response rating, Velvetleaf: 31 g ai/ha, scale 0 to 100 (0 no effect, 100 complete control)
In short: as §2

[17] = tested on: umbrella sedge; test: Test C flooded paddy test; type: in vivo, Cyperus difformis; conditions: Flood
In short: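 Ratings were visual and made relative to untreated controls after 13 to 15 greenhouse days.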

[18] = Postemergence, 500 g ai/ha, 0 is no effect, 100 is complete control
[19] = Preemergence, 125 g ai/ha, 0 no effect, 100 complete control
[20] = 62 g ai/ha, Preemergence, scale 0 to 100
[21] = 125 g ai/ha, preemergence, scale 0 (no effect) to 100 (complete control)
[22] = preemergence, 250 g ai/ha, scale 0 (no effect) to 100 (complete control)
[23] = 250 g ai/ha, scale 0 to 100, 0 no effect, 100 complete control, 13 to 15 days
[24] = Postemergence, 125 g ai/ha, 0 is no effect, 100 is complete control

CCc1cc[n+]([O-])c(S(=O)(=O)Cc2c(C(F)(F)F)nn(C)c2OCC(F)(F)F)c1 [Compound 60]
90: Barnyardgrass plant response rating [1, 18] | Barnyardgrass plant response rating [1, 19] | Crabgrass, Large plant response rating [2, 19] | Ryegrass, Italian plant response rating [5, 22] | Morningglory plant response rating [12, 20]
70: Plant response rating, Wheat ([3]; Preemergence, 500 g ai/ha) | Sunflower plant response rating [15, 21]
98: Corn plant response rating [7, 22]
75: Ryegrass, Italian plant response rating [5, 20]
20: Plant response rating, Ryegrass, Italian ([5]; Preemergence) | Corn plant response rating [7, 20]
30: Plant response rating, Corn ([4]; Postemergence, 125 g ai/ha)
0: Corn plant response rating [4, 19] | Plant response rating, Corn ([7]; Preemergence) | Plant response rating, Velvetleaf ([16]; Preemergence) | Plant response rating, Sedge, Umbrella ([17]; 62 g ai/ha, scale 0 to 100 (0 no effect, 100 complete control))
55: Corn plant response rating [7, 21] | Sunflower plant response rating [15, 20]
95: Plant response rating, Surinam Grass ([6]; Preemergence)
100: Plant response rating, Barnyardgrass ([1]; Preemergence, 500 g ai/ha) | Plant response rating, Crabgrass, Large ([2]; Preemergence, 500 g ai/ha) | Surinam Grass plant response rating [6, 20] | Surinam Grass plant response rating [6, 21] | Surinam Grass plant response rating [6, 22] | Crabgrass, Large plant response rating [8, 20] | Crabgrass, Large plant response rating [8, 21] | Plant response rating, Crabgrass, Large ([8]; Preemergence) | Crabgrass, Large plant response rating [8, 22] | Foxtail, Giant plant response rating [9, 20] | Foxtail, Giant plant response rating [9, 21] | Plant response rating, Foxtail, Giant ([9]; Preemergence) | Foxtail, Giant plant response rating [9, 22] | Goosegrass plant response rating [10, 20] | Goosegrass plant response rating [10, 21] | Plant response rating, Goosegrass ([10]; Preemergence) | Goosegrass plant response rating [10, 22] | Johnsongrass plant response rating [11, 20] | Johnsongrass plant response rating [11, 21] | Plant response rating, Johnsongrass ([11]; Preemergence) | Johnsongrass plant response rating [11, 22] | Morningglory plant response rating [12, 21] | Morningglory plant response rating [12, 22] | Nightshade plant response rating [13, 21] | Nightshade plant response rating [13, 22] | Pigweed plant response rating [14, 20] | Pigweed plant response rating [14, 21] | Plant response rating, Pigweed ([14]; Preemergence) | Pigweed plant response rating [14, 22] | Velvetleaf plant response rating [16, 21] | Velvetleaf plant response rating [16, 22]
50: Plant response rating, Crabgrass, Large ([2]; Postemergence, 125 g ai/ha) | Plant response rating, Wheat ([3]; Postemergence, 125 g ai/ha) | Wheat plant response rating [3, 19] | Plant response rating, Corn ([4]; Preemergence, 500 g ai/ha) | Plant response rating, Morningglory ([12]; Preemergence)
60: Wheat plant response rating [3, 18] | Corn plant response rating [4, 18]
80: Plant response rating, Barnyardgrass ([1]; Postemergence, 125 g ai/ha) | Crabgrass, Large plant response rating [2, 18] | Ryegrass, Italian plant response rating [5, 21] | Nightshade plant response rating [13, 20] | Sunflower plant response rating [15, 22] | Plant response rating, Sedge, Umbrella [17, 23]
40: Plant response rating, Sunflower ([15]; Preemergence) | Velvetleaf plant response rating [16, 20]

Cc1cc[n+]([O-])c(S(=O)(=O)C(Cl)c2c(C(F)(F)F)nn(C)c2OCC(F)(F)F)c1 (racemic) [Compound 37]
70: Barnyardgrass plant response rating [1, 18] | Foxtail, Giant plant response rating [9, 20] | Velvetleaf plant response rating [16, 22]
20: Wheat plant response rating [3, 19] | Plant response rating, Foxtail, Giant ([9]; Preemergence)
95: Johnsongrass plant response rating [11, 22] | Plant response rating, Sedge, Umbrella ([17]; 125 g ai/ha, scale 0 to 100, 0 no effect, 100 complete control, 13 to 15 days) | Plant response rating, Sedge, Umbrella [17, 23]
10: Velvetleaf plant response rating [16, 21]
40: Corn plant response rating [4, 18] | Sunflower plant response rating [15, 22]
0: Wheat plant response rating [3, 24] | Corn plant response rating [4, 24] | Corn plant response rating [4, 19] | Plant response rating, Ryegrass, Italian ([5]; Preemergence) | Plant response rating, Corn ([7]; Preemergence) | Morningglory plant response rating [12, 20] | Morningglory plant response rating [12, 21] | Plant response rating, Morningglory ([12]; Preemergence) | Sunflower plant response rating [15, 20] | Sunflower plant response rating [15, 21] | Plant response rating, Sunflower ([15]; Preemergence) | Velvetleaf plant response rating [16, 20] | Plant response rating, Velvetleaf ([16]; Preemergence)
55: Plant response rating, Crabgrass, Large ([8]; Preemergence)
100: Plant response rating, Barnyardgrass ([1]; Preemergence, 500 g ai/ha) | Ryegrass, Italian plant response rating [5, 22] | Surinam Grass plant response rating [6, 20] | Surinam Grass plant response rating [6, 21] | Surinam Grass plant response rating [6, 22] | Crabgrass, Large plant response rating [8, 21] | Crabgrass, Large plant response rating [8, 22] | Foxtail, Giant plant response rating [9, 22] | Goosegrass plant response rating [10, 20] | Goosegrass plant response rating [10, 21] | Goosegrass plant response rating [10, 22] | Pigweed plant response rating [14, 20] | Pigweed plant response rating [14, 21] | Pigweed plant response rating [14, 22]
80: Crabgrass, Large plant response rating [2, 18] | Crabgrass, Large plant response rating [8, 20] | Johnsongrass plant response rating [11, 20] | Johnsongrass plant response rating [11, 21] | Nightshade plant response rating [13, 20] | Plant response rating, Nightshade ([13]; Preemergence, 31 g ai/ha, scale 0 to 100 (0 no effect, 100 complete control)) | Plant response rating, Pigweed ([14]; Preemergence)
50: Wheat plant response rating [3, 18] | Plant response rating, Wheat ([3]; Preemergence, 500 g ai/ha) | Plant response rating, Surinam Grass ([6]; Preemergence) | Corn plant response rating [7, 21] | Plant response rating, Johnsongrass ([11]; Preemergence)
90: Barnyardgrass plant response rating [1, 19] | Plant response rating, Crabgrass, Large ([2]; Preemergence, 500 g ai/ha) | Corn plant response rating [7, 22] | Nightshade plant response rating [13, 22]
30: Barnyardgrass plant response rating [1, 24] | Crabgrass, Large plant response rating [2, 24] | Plant response rating, Corn ([4]; Preemergence, 500 g ai/ha)
85: Foxtail, Giant plant response rating [9, 21] | Plant response rating, Goosegrass ([10]; Preemergence) | Nightshade plant response rating [13, 21] | Plant response rating, Sedge, Umbrella ([17]; 62 g ai/ha, scale 0 to 100, 0 no effect, 100 complete control, 13 to 15 days)
60: Crabgrass, Large plant response rating [2, 19] | Morningglory plant response rating [12, 22] | Plant response rating, Sedge, Umbrella ([17]; 31 g ai/ha, scale 0 to 100 (0 no effect, 100 complete control))
5: Corn plant response rating [7, 20]
